Here are results for 2 compounds from US20240293413A1, “COMPOUND AND METHOD FOR TREATING CHEMOTHERAPY-RELATED GASTROINTESTINAL SIDE EFFECTS” (ONQUALITY PHARMACEUTICALS CHINA LTD., priority 2021, published 2024).

What all share (format): in vivo
Experiment [1] relates to diarrhea caused by a chemotherapeutic agent in Balb/c mice. In words: Examples 230-271 (Table 4): oral CDK inhibitor, relief of diarrhea caused by a chemotherapeutic agent. An excerpt:
Balb/c mice were fed for 1 week, and then divided into groups. The experiment was divided into a control group, a chemotherapeutic agent group, and a CDK inhibitor group, each of which comprised 10 mice, to perform the administration experiment, for which the administration dosage, mode, time and frequency were shown in Table 4. The control group: being intragastrically administered with the same solvent as that used in the CDK inhibitor group (the time was shown in Table 4), and then being injected/intragastrically administered with the same solvent as that used in the chemotherapeutic agent group (the administration mode was shown in Table 4): the chemotherapeutic agent group: being intragastrically administered with the same solvent as that used in the CDK inhibitor group (the time was shown in Table 4), and then being injected/intragastrically administered with the chemotherapeutic agent (the type, administration mode and dosage were shown in Table 4): the CDK inhibitor group: being intragastrically administered with the CDK inhibitor (the time was shown in Table 4), and then being administered with the chemotherapeutic agent (the mode and dosage were shown in Table 4).
(§1) The diarrhea grading of mice was observed and recorded every day.

The subject of experiment [2] is Chemotherapeutic agent-caused diarrhea models of Balb/c mice. The experiment is described as follows: Examples 1-229 (Table 3): oral CDK inhibitor, relief of diarrhea caused by a chemotherapeutic agent.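 Further: percent of treated mice whose diarrhea grade fell below chemotherapy-group average.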
Experiment [3] concerns diarrhea caused by a chemotherapeutic agent in Balb/c mice. The experiment is described as follows: Examples 343-381 (Table 6): oral versus intravenous CDK inhibitor, relief of diarrhea caused by a chemotherapeutic agent.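 Further: percent of treated mice whose diarrhea grade fell below chemotherapy-group average.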 As to conditions: cycle 10 days.
Excerpt: Balb/c mice were fed for 1 week, and then divided into groups. The experiment was divided into a control group, a chemotherapeutic agent group, and an oral administration group of a CDK inhibitor, and an intravenous injection group of a CDK inhibitor, each of which comprised 10 mice, to perform the administration experiment, for which the administration dosage, mode, time and frequency were shown in Table 6. The control group: being injected/intragastrically administered with the same solvent as that used in the CDK inhibitor group (the time was shown in Table 6), and then being injected/intragastrically administered with the same solvent as that used in the chemotherapeutic agent group (the administration mode was shown in Table 6): the chemotherapeutic agent group: being injected/intragastrically administered with the same solvent as that used in the CDK inhibitor group (the time was shown in Table 6), and then being injected/intragastrically administered with the chemotherapeutic agent (the type, administration mode and dosage were shown in Table 6): the oral administration group of the CDK inhibitor: being intragastrically administered with the CDK inhibitor (the time was shown in Table 6), and then being administered with the chemotherapeutic agent (the mode and dosage were shown in Table 6): the intravenous injection group of the CDK inhibitor: being injected with the CDK inhibitor through tail vein (the time was shown in Table 6), and then being administered with the chemotherapeutic agent (the mode and dosage were shown in Table 6).
as §1

Experiment [4] concerns Chemotherapeutic agent-caused constipation models of Balb/c mice. In words: Examples 272-342 (Table 5): oral CDK inhibitor, relief of constipation caused by a chemotherapeutic agent.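 Further: percent of treated mice relieved versus chemotherapy group by feces reduction rate.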 As to conditions: Example 335; Cytarabine (Ara-C) oral administration 1000 mg/kg single; CDK inhibitor oral 60 mg/kg single, 24 h before; cycle 8 days. An excerpt: Construction of mouse animal models: Chemotherapeutic agent-caused constipation models of Balb/c mice were constructed according to the administration mode and frequency of the chemotherapeutic agent as shown in Table 5.
Balb/c mice were fed for 1 week, and then divided into groups. The experiment was divided into a control group, a chemotherapeutic agent group, and a CDK inhibitor group, each of which comprised 10 mice, to perform the administration experiment, for which the administration dosage, mode, time and frequency were shown in Table 5. The control group: being intragastrically administered with the same solvent as that used in the CDK inhibitor group (the time was shown in Table 5), and then being injected/intragastrically administered with the same solvent as that used in the chemotherapeutic agent group (the administration mode was shown in Table 5): the chemotherapeutic agent group: being intragastrically administered with the same solvent as that used in the CDK inhibitor group (the time was shown in […]), and then being injected/intragastrically administered with the chemotherapeutic agent (the type, administration mode and dosage were shown in Table 5): the CDK inhibitor group: being intragastrically administered with the CDK inhibitor (the time was shown in Table 5), and then being administered with the chemotherapeutic agent (the mode and dosage were shown in Table 5).
Feces reduction rate (%)=(the control group−the chemotherapeutic agent group or the CDK inhibitor group)/the control group*100%
The feces amount of mice within 3 hours was observed and recorded every day.

SMILES strings stand for the structures.

On to `CCc1cnn2c(NCc3ccc[n+]([O-])c3)cc(N3CCCC[C@H]3CCO)nc12` [Dinaciclib], for which the Relative remission rate in experiment [1] (Example 240, Doxorubicin (Dox) intramuscular injection 10 mg/kg single, CDK inhibitor oral 40 mg/kg single, 0.5 h before, cycle 10 days) is recorded as 30%; in experiment [1] (Example 241, Doxorubicin (Dox) intramuscular injection 10 mg/kg single, CDK inhibitor oral 40 mg/kg single, 12 h before, cycle 10 days), 20%; in experiment [1] (Example 242, Doxorubicin (Dox) intramuscular injection 10 mg/kg single, CDK inhibitor oral 40 mg/kg single, 24 h before, cycle 10 days), 0%; in experiment [3] (Example 368, Topotecan (TP) intravenous injection 10 mg/kg single, CDK inhibitor intravenous injection 40 mg/kg single, 0.5 h before) it was 10%; in experiment [3] (Example 368, Topotecan (TP) intravenous injection 10 mg/kg single, CDK inhibitor oral 40 mg/kg single, 0.5 h before), 20%. In addition, the “Relative remission rate (%)” value turned out to be 10% in experiment [2] (Example 131, Docetaxel (DTX) intraperitoneal injection 10 mg/kg single, CDK inhibitor oral 40 mg/kg single 0.5 h before, cycle 8 days); 10% in experiment [2] (Example 132, Docetaxel (DTX) intraperitoneal injection 10 mg/kg single, CDK inhibitor oral 40 mg/kg single 1 h before, cycle 8 days); 20% in experiment [2] (Example 133, Docetaxel (DTX) intraperitoneal injection 10 mg/kg single, CDK inhibitor oral 40 mg/kg single 2 h before, cycle 8 days); 20% in experiment [2] (Example 134, Docetaxel (DTX) intraperitoneal injection 10 mg/kg single, CDK inhibitor oral 40 mg/kg single 4 h before, cycle 8 days); 30% in experiment [2] (Example 135, Docetaxel (DTX) intraperitoneal injection 10 mg/kg single, CDK inhibitor oral 40 mg/kg single 6 h before, cycle 8 days); 30% in experiment [2] (Example 136, Docetaxel (DTX) intraperitoneal injection 10 mg/kg single, CDK inhibitor oral 40 mg/kg single 8 h before, cycle 8 days). In addition, the “Relative remission rate (%)” value in experiment [2] (Example 137, Docetaxel (DTX) intraperitoneal injection 10 mg/kg single, CDK inhibitor oral 40 mg/kg single 10 h before, cycle 8 days) came to 30%; in experiment [2] (Example 138, Docetaxel (DTX) intraperitoneal injection 10 mg/kg single, CDK inhibitor oral 40 mg/kg single 12 h before, cycle 8 days), 20%; in experiment [2] (Example 139, Docetaxel (DTX) intraperitoneal injection 10 mg/kg single, CDK inhibitor oral 40 mg/kg single 14 h before, cycle 8 days), 20%; in experiment [2] (Example 140, Docetaxel (DTX) intraperitoneal injection 10 mg/kg single, CDK inhibitor oral 40 mg/kg single 16 h before, cycle 8 days), 40%; in experiment [2] (Example 141, Docetaxel (DTX) intraperitoneal injection 10 mg/kg single, CDK inhibitor oral 40 mg/kg single 18 h before, cycle 8 days), 30%; in experiment [2] (Example 142, Docetaxel (DTX) intraperitoneal injection 10 mg/kg single, CDK inhibitor oral 40 mg/kg single 20 h before, cycle 8 days) it was 30%. Also, the “Relative remission rate (%)” value in experiment [2] (Example 143, Docetaxel (DTX) intraperitoneal injection 10 mg/kg single, CDK inhibitor oral 40 mg/kg single 22 h before, cycle 8 days) came to 20%; in experiment [2] (Example 144, Docetaxel (DTX) intraperitoneal injection 10 mg/kg single, CDK inhibitor oral 40 mg/kg single 24 h before, cycle 8 days) it was 10%; in experiment [2] (Example 145, Docetaxel (DTX) intraperitoneal injection 10 mg/kg single, CDK inhibitor oral 40 mg/kg single 48 h before, cycle 8 days), 0%; in experiment [2] (Example 204, Gemcitabine 60 mg/kg and paclitaxel 10 mg/kg intraperitoneal injection single, CDK inhibitor oral 70 mg/kg single, 4 h before, 8 days), 30%.
For the compound `CN1CCC(c2c(O)cc(O)c3c(=O)cc(-c4ccccc4Cl)oc23)C1CO` (stereo not shown) [Riviciclib], the Relative remission rate in experiment [1] (Example 262, Cytarabine (Ara-C) oral administration 1000 mg/kg single, CDK inhibitor oral single (dosage not given), 24 h before, cycle 8 days) was found to be 20%; in experiment [3] (Example 370, Topotecan (TP) oral administration 20 mg/kg single, CDK inhibitor intravenous injection 60 mg/kg single, 24 h before), 10%; in experiment [3] (Example 370, Topotecan (TP) oral administration 20 mg/kg single, CDK inhibitor oral 60 mg/kg single, 24 h before) it was 30%; in experiment [4], 20%. Also, the “Relative remission rate (%)” value in experiment [2] (Example 35, Fluorouracil (5-Fu) intraperitoneal injection 125 mg/kg single, CDK inhibitor oral 65 mg/kg single 8 h before, cycle 10 days) is listed as 40%; in experiment [2] (Example 192, Gemcitabine (GEM) intravenous injection 120 mg/kg single, CDK inhibitor oral 180 mg/kg single, 6 h before, 8 days), 70%; in experiment [2] (Example 215, Fluorouracil 100 mg/kg and irinotecan 200 mg/kg intravenous injection single, CDK inhibitor oral 65 mg/kg single, 2 h before, 10 days), 50%.
